Test results published in patent US20130109581A1, “POSITIVELY CHARGED SPECIES AS BINDING REAGENTS IN THE SEPARATION OF PROTEIN AGGREGATES FROM MONOMERS” (priority 2009, published 2013).
Entries after “also recorded” stand apart in the source; their conditions may differ. Like-named read-outs stand apart in the source and are kept apart here. Where a SMILES comes first, the peptide text is derived from it. [ ]: non-standard residue; d: D form. Ahx = NCCCCCC(=O)O

Legend:
Aβ42 ASPD = molecular target: T1, Aβ42 ASPD (Homo sapiens, UniProt P05067); assay: Misfolded Protein Assay, LoD and capture in CSF: ASPD; format: binding
T1 construct: The Ab42 aggregates were prepared as previously described
Method: (§1) The Ab42 aggregates were prepared as previously described: fibrils were prepared per Stine et al (JBC 2003, 278, p11612), globulomers were prepared per Barghorn et al (J Neurology 2005 95 p834), ADDLs were prepared per Lambert et al (PNAS 1998, 95 p6448), and ASPDs were prepared per Noguchi et al (JBC 2009 284 p32895). Normal CSF was pooled from clinically characterized non-demented patient CSF samples. AD CSF was pooled from clinically-characterized AD patient samples. Alzheimer's Disease Brain Homogenate (ADBH) was prepared by sonication of clinically diagnosed AD patient brain samples in 0.2M.sucrose (1:10 w/v).
(§2) For the capture assay (Misfolded Protein Assay), aliquots of the beads (30 ul) were added to wells of a 96 well plate, followed by 125 ul of sample in 80:20 CSF:TBSTT. The plate was sealed and incubated for 1 h at 37 C with shaking. The plate was washed with TBST and the residual buffer removed. A denaturing solution (0.1 N NaOH) was added to each well and the plate heated to 80 C. for 30 min with shaking. After cooling the plate to RT, a neutralizing buffer (0.12 M NaH2PO3-0.4% TW20,) was added and the plate shaken briefly at RT. The assay was analyzed using the triplex Mesoscale Discovery ELISA kit for Aβ. The Aβ in the samples eluted from the beads were detected per the manufacturer's protocol.
(§3) For the Limit of Detection (LoD) studies, serial dilutions of each aggregate were spiked into CSF and were assayed per the protocol described above. The LoD was defined as 2× over background levels.
(§4) This pattern minors the capture selectivity observed when these species are tested with 3 ul of PSR1 beads and 1 ng/mL of aggregate.

Aβ42 Globulomer = molecular target: T2, Aβ42 Globulomer (Homo sapiens, UniProt P05067); assay: Misfolded Protein Assay, LoD and capture in CSF: globulomer; format: binding
T2 construct: beta amyloid (1-42) was monomerized with incubation in hexafluoroisopropanol
Method: as §1, §2, §3, §4

[1] = molecular target: T3, Aβ40 aggregates in AD CSF (Homo sapiens, UniProt P05067); assay: Discrimination between AD and normal CSF; format: binding; settings: FIG. 39
T3 construct: from tissue; host or cells: pooled cerebrospinal fluid (normal or AD)
Method: as §1, §2
For discriminating between AD and normal CSF, pooled normal CSF or pooled Alzheimer's Disease patient CSF, were assayed per the protocol described above.

[2] = tested on: Alzheimer's Disease Brain Homogenate (ADBH) Aβ aggregates; assay: Misfolded Protein Assay, LoD in CSF: ADBH; format: binding, human; settings: spiked into CSF; LoD = 2× over background
Method: as §1
as §2, with “protocol. […]” for “protocol.”

Aβ42 Fibrils = molecular target: T4, Aβ42 Fibrils (Homo sapiens, UniProt P05067); assay: Misfolded Protein Assay, LoD and capture in CSF: fibrils; format: binding
T4 construct: The Ab42 aggregates were prepared as previously described
Method: as §1, §2, §3, §4

Aβ42 ADDL = Aβ42 ADDL (Homo sapiens, UniProt P05067); assay: Misfolded Protein Assay, LoD and capture in CSF: ADDL; format: binding
Method: as §1, §2, §3, §4

normal CSF Aβ40 = molecular target: T5, normal CSF Aβ40 (Homo sapiens, UniProt P05067); assay: NMPA with detergent washing: background from CSF, Abeta40; format: binding; settings: 1% detergent wash after PSR1 pulldown; FIG. 35
T5 construct: from tissue; host or cells: pooled cerebrospinal fluid (normal or AD)
Method: Second, two neutral detergents, polyethylene glycol sorbitan monolaurate (available as TWEEN 20 from Sigma-Aldrich, St. Louis, Mo.) and n-tetradecyl-N,N-dimethyl-3-ammonio-1-propanesulfonate (available as ZWITTERGENT 3-14 from EMI) Chemicals, Gibbstown, N.J.) were used to treat the globulomer-spiked CSF samples that had been contacted with PSR1 beads. For each assay, a mixture of 30 μl of PSR1 beads (coated at about 7-12 nmol PSR1 ligand/mg DYNAL beads, which were used in this example and in the following examples unless otherwise stated) and 70 μl of 1×TBSTT was immediately pipetted into each well on the pulldown plate. The liquid was removed on a magnetic separator. Fifty micro liters of 5×TBSTT was added to each well. The beads were suspended by briefly shaking at 750 rpm. Next […] of TBSTT or CSF sample without globulomer was added to each well. The pulldown plate was sealed and incubated at 37° C. for 1 hour with shaking at 500 rpm. After incubation, the beads were washed 8 times with TBST on the plate washer. After the plate wash, residual TBST buffer was removed from the beads on the magnetic separator. […]
(§5) A summary of the assay results and calculated signal/noise is shown below in Table 17.

Abeta 42 globulomer = Abeta 42 globulomer (Homo sapiens, UniProt P05067); assay: NMPA with detergent washing after PSR1 pulldown: globulomer detection; format: binding
normal CSF Aβ42 = molecular target: T6, normal CSF Aβ42 (Homo sapiens, UniProt P05067); assay: NMPA with detergent washing: background from unspiked CSF, Abeta42; format: binding; settings: for detection of normal CSF Aβ42 (background): 1% detergent wash after PSR1 pulldown, FIG. 35
T6 construct: reduced the detection of normal CSF Aβ42 to the background levels; from tissue; host or cells: pooled normal cerebrospinal fluid
Method: Second, two neutral detergents, polyethylene glycol sorbitan monolaurate (available as TWEEN 20 from Sigma-Aldrich, St. Louis, Mo.) and n-tetradecyl-N,N-dimethyl-3-ammonio-1-propanesulfonate (available as ZWITTERGENT 3-14 from EMI) Chemicals, Gibbstown, N.J.) were used to treat the globulomer-spiked CSF samples that had been contacted with PSR1 beads. For each assay, a mixture of 30 μl of PSR1 beads (coated at about 7-12 nmol PSR1 ligand/mg DYNAL beads, which were used in this example and in the following examples unless otherwise stated) and 70 μl of 1×TBSTT was immediately pipetted into each well on the pulldown plate. The liquid was removed on a magnetic separator. Fifty micro liters of 5×TBSTT was added to each well. The beads were suspended by briefly shaking at 750 rpm. Next […] of TBSTT or CSF sample without globulomer was added to each well. The pulldown plate was sealed and incubated at 37° C. for 1 hour with shaking at 500 rpm. After incubation, the beads were washed 8 times with TBST on the plate washer. After the plate wash, residual TBST buffer was removed from the beads on the magnetic separator. The beads were then incubated with 100 μl of either TBS, 1% Tween20 or 1% Zwittergent 3-14 for 30 minutes at room temperature at 750 rpm, (followed by an additional 8 washes with TBST on the plate washer. After removing residual TBST on the magnetic separator, 20 μl of denaturing solution, typically 0.1-0.15 N NaOH, was added to the beads. The plate was covered with an aluminum foil plate sealer and incubated at 80° C. for 30 minutes with shaking at 750 rpm. After incubation, the plate was cooled to room temperature and twenty micro liters of neutralizing solution, typically 0.12-0.18 M NaH2PO4+0.4% Tween20) was added into each well and the plate was incubated at room temperature for 5 minutes with shaking at 750 rpm. […] MSD Abeta Triplex Assay was preformed according to the manufacturer's instructions.
as §5

[3] = 3 ul of beads and 1 ng/mL of aggregate
[4] = spiked into CSF, LoD = 2× over background
[5] = CSF, PSR1 beads treated with detergent post capture
[6] = pulldown CSF, PSR1 beads washed with 1% detergent

Abeta 42 globulomer, sequence (P05067 672-713 limits assumed): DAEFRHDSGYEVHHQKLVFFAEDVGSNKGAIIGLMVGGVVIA
T6 sequence (P05067 672-713 limits assumed): as above
T1 sequence (P05067 672-713 limits assumed): as above
T4 sequence (P05067 672-713 limits assumed): as above
Aβ42 ADDL, sequence (P05067 672-713 limits assumed): as above
T2 sequence (P05067 672-713 limits assumed): as above
T5 sequence (P05067 672-711 limits assumed): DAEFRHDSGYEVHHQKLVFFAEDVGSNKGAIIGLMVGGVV
T3 sequence (P05067 672-711 limits assumed): as above

CC(=O)NC(Cc1ccccc1)C(=O)NC(CCCCN)C(=O)NC(Cc1ccccc1)C(=O)NC(CCCCN)C(=O)NC(CCCCN)C(=O)NC(CCCCN)C(=O)NCCCCCC(=O)NCCCCCC(=O)NC(CS)C(N)=O (stereo not drawn) [Ac-FKFKKK, Ac-FKFKKK-Ahx-Ahx-Cys-NH2] (Ac-FKFKKK[Ahx][Ahx]C-NH2; configuration not given here)
capture of ASPD (Aβ42 ASPD; [3]): 1321 | LoD (Aβ42 ASPD; [4]): 300 pg/mL | capture of Globulomer (Aβ42 Globulomer; [3]): 3409 | LoD (Aβ42 Globulomer; [4]): 75 to 120 pg/mL | Aβ40 signal in pooled AD CSF relative to normal pool [1]: higher Aβ40 signal in positive pooled AD CSF relative to unmatched normal pool; also recorded: largest change in signal | LoD [2]: <10 pg/mL | capture of Fibril (Aβ42 Fibrils; [3]): 4138 | LoD (Aβ42 Fibrils; [4]): 100 pg/mL | capture of ADDL (Aβ42 ADDL; [3]): 1241 | LoD (Aβ42 ADDL; [4]): 300 pg/mL

Polyethylene glycol sorbitan monolaurate [TW20]
detection of normal CSF Aβ40 (background) (normal CSF Aβ40): reduced the detection of normal CSF Aβ40 significantly | LoD of globulomer (Cal) (Abeta 42 globulomer): 2.52 pg/mL | LoD of globulomer, RLU (S/N = 2) (Abeta 42 globulomer): 211 RLU | S/N at 25.3 pg/mL globulomer (Abeta 42 globulomer): 11.0 | signal/noise of globulomer detection (Abeta 42 globulomer): improved the signal/noise of globulomer detection | detection of normal CSF Aβ42 (background) (normal CSF Aβ42): reduced the detection of normal CSF Aβ42 to the background levels observed when PSR1 is incubated with TBSTT buffer alone

n-Tetradecyl-N,N-dimethyl-3-ammonio-1-propanesulfonate [ZW3-14]
detection of normal CSF Aβ40 (background) (normal CSF Aβ40): reduced the detection of normal CSF Aβ40 significantly | signal/noise of globulomer detection (Abeta 42 globulomer): improved the signal/noise of globulomer detection; also recorded: improved the signal/noise ratio for Abeta 42 globulomer detection more significantly | S/N Abeta 42 globulomer-spiked/unspiked (Abeta 42 globulomer; 0.5 ng/mL vs 0 ng/mL globulomer): 7.7 | S/N Abeta 42 globulomer-spiked/Abeta 40 (Abeta 42 globulomer; Abeta 42 RLU at 0.5 ng/mL over average Abeta 40 RLU): 2.2 | Abeta 42 RLU, 0.5 ng/mL Abeta 42 globulomer, Average (Abeta 42 globulomer; [5]): 842.0 RLU | LoD of globulomer (Cal) (Abeta 42 globulomer; [6]): 2.33 pg/mL | LoD of globulomer, RLU (S/N = 2) (Abeta 42 globulomer; [6]): 199 RLU | S/N at 25.3 pg/mL globulomer (Abeta 42 globulomer; [6]): 10.3 | detection of normal CSF Aβ42 (background) (normal CSF Aβ42): reduced the detection of normal CSF Aβ42 to the background levels observed when PSR1 is incubated with TBSTT buffer alone | Abeta 42 RLU, 0 ng/mL Abeta 42 globulomer, Average (normal CSF Aβ42; [5]): 110.0 RLU
